Data on three compounds can be found in patent US6730707B2, “Method for reducing intraocular pressure using indole derivatives” (Inspire Pharmaceuticals, Inc., priority 2000, dated 2004).

The test system of this assay is New Zealand white rabbits. The assay is described as follows: Effects on intraocular pressure (IOP) in rabbits, TONOPEN contact tonometer, topical unilateral application. It counts as in vivo, rabbit. To be noted: for maximal reduction of IOP / IC50: topical; for maximal reduction of IOP: n=8; for IC50: Oryctolagus cuniculus; for persistence of the IOP-lowering effect / time at which the maximal effect on IOP was observed: after topical application; for IOP-lowering effect after pretreatment with luzindole: luzindole 100 μg/10 μL applied 30 min before (FIG. 4). The protocol:
IOP was measured using a TONOPEN contact tonometer supplied by Xomed (Jacksonville, Fla., USA). Ten microliters of the agents were applied topically and unilaterally to the cornea, whereas the contralateral eye received the same volume of saline solution. The corneas were anesthetized to avoid any discomfort associated with the use of the tonometer. Two measurements were made before application of the agents. Melatonin (Sigma, St. […] A single dose was tested in a single animal on a single day.

Where two headings read alike, the source gives them in different places.

Usually IC50 stands for the concentration that gives 50% inhibition. As for `COC(=O)Nc1ccc2[nH]cc(CCNC(C)=O)c2c1` [Example 5-MCA-NAT, 5-(methoxycarbonylamino)-N-acetyltryptamine], the “persistence of the IOP-lowering effect” value was 10 h, the “time at which the maximal effect on IOP was observed” value worked out at 2 h and the “IOP-lowering effect after pretreatment with luzindole” value is reported as “abolished”. For the same compound, the “maximal reduction of IOP” value (5-MCA-NAT, maximal at 100 pg/10 μL) turned out to be 43.1±3.65%. The IC50 (read-out: IC50 for lowering IOP) is 423 ± 30 µg/mL. For the same compound, the IC50 (read-out: IC50 for lowering IOP, equivalent dose) was determined as 1.8 ± 0.1 nM. Moreover, the “maximal IOP response relative to melatonin” value (comparison of maximal responses) is reported as “almost twice”.

For the compound `CC(=O)NCCc1c(Cc2ccccc2)[nH]c2ccccc12` [luzindole], under “100 μg/10 μL, over a duration of six hours”, the “effect on IOP when applied alone” value was “had no effect”.

In the case of `COc1ccc2[nH]cc(CCNC(C)=O)c2c1` [melatonin], the “persistence of the IOP-lowering effect” value stood at 3 h, the “time at which the maximal effect on IOP was observed” value stood at 1 h and the “IOP-lowering effect after pretreatment with luzindole” value was “abolished”. Further, the concentration for half-maximal inhibition (IC50) (equivalent of the IC50 dose (FIG. 3), read-out: IC50 for lowering IOP, equivalent dose) is 1.6 ± 0.1 nM. The “IC50 for lowering IOP” value (dose-response 10 pg/10 μL to 1 mg/10 μL, topical (FIG. 3)) is reported as 363±23.0 ng/10 μL. For the setting “melatonin, maximal at 10 μg/10 μL”, the “maximal reduction of IOP” value is 24±4.4%.
